Measurements as given in patent US5843889A, “Glycopeptide antibiotic derivatives” (Eli Lilly and Company, priority 1997, dated 1998).
In brackets after ≈: the same amount, converted by molar mass.

Key:
Assay type in all cases: cell-based
[1] = tested on: Staphylococcus aureus S13E
Description: (§1) The MIC's were determined using a standard broth micro-dilution assay.

[2] = tested on: Staphylococcus aureus SA1199B
Description: as §1

[3] = tested on: Entercoccus gallinarum 245; assay: MIC, standard broth micro-dilution assay
Description: (§2) The formula I compounds have in vitro and in vivo activity against Gram-positive pathogenic bacteria. The MIC's were determined using a standard broth micro-dilution assay.

Entercoccus faecalis 276 = assay: MIC, standard broth micro-dilution assay
Description: as §2

[4] = tested on: Entercoccus faecalis 2041; assay: MIC, standard broth micro-dilution assay
Description: as §2

Pedicoccus acidilacti = assay: MIC, agar dilution on brain-heart infusion agar; details: Pedioccccus acidilacti (mean of 10)
Pediococcus pentosaceus = assay: MIC, agar dilution on brain-heart infusion agar; details: Pediococcus pentosaceus (mean of 2)
[5] = tested on: Leuconostoc mesenteroides; assay: MIC, agar dilution on brain-heart infusion agar; details: Leuconostoc mesenteroides (mean of 4)
Leuconostoc lactis = assay: MIC, agar dilution on brain-heart infusion agar; details: Leuconostoc lactis (mean of 2)
Lactobacillus confusus = assay: MIC, agar dilution on brain-heart infusion agar
[6] = tested on: Staphylococcus aureus 491; assay: MIC, standard broth micro-dilution assay
Description: as §1

[7] = tested on: Staphylococcus epidermidis 270; assay: MIC, standard broth micro-dilution assay
Description: as §1

[8] = tested on: Staphylococcus haemolyticus 105; assay: MIC, standard broth micro-dilution assay
Description: as §1

[9] = tested on: Staphylococcus aureus 489; assay: MIC, standard broth micro-dilution assay
Description: as §1

[10] = tested on: Staphylococcus aureus 447; assay: MIC, standard broth micro-dilution assay
Description: as §1

[11] = tested on: Staphylococcus aureus X778; assay: MIC, standard broth micro-dilution assay
Description: as §1

[12] = tested on: Staphylococcus aureus SA1199; assay: MIC, standard broth micro-dilution assay
Description: as §1

[13] = tested on: Staphylococcus aureus X400; assay: MIC, standard broth micro-dilution assay
Description: as §1

[14] = tested on: Staphylococcus haemolyticus 415; assay: MIC, standard broth micro-dilution assay
Description: as §1

[15] = tested on: Haemophilus influenzae RD; assay: MIC, standard broth micro-dilution assay
Description: as §1

[16] = tested on: Staphylococcus aureus SA1199A; assay: MIC, standard broth micro-dilution assay
Description: as §1

Entercoccus faecium 180 = assay: MIC, standard broth micro-dilution assay
Description: as §1

[17] = tested on: Entercoccus faecium 180-1; assay: MIC, standard broth micro-dilution assay
Description: as §1

[18] = tested on: Staphylococcus aureus 446; assay: MIC, standard broth micro-dilution assay
Description: as §1

Molecule | MIC [1] [µg/mL] | MIC [2] [µg/mL] | MIC [3] [µg/mL] | MIC (Entercoccus faecalis 276) [µg/mL] | MIC [4] [µg/mL] | MIC (Pedicoccus acidilacti) [µg/mL] | also measured
4-[2-chloro-6-fluorobenzyloxy]benzyl [Compound 80] | 1 | 1 | ≤ 0.06 | ≤ 0.06 | ≤ 0.06 | – | –
CNC(CC(C)C)C(=O)NC1C(=O)NC(CC(N)=O)C(=O)NC2C(=O)NC3C(=O)NC(C(=O)NC(C(=O)O)c4cc(O)cc(O)c4-c4cc3ccc4O)C(OC3CC(C)(N)C(O)C(C)O3)c3ccc(c(Cl)c3)Oc3cc2cc(c3OC2OC(CO)C(O)C(O)C2OC2CC(C)(NCc3cc(OCc4ccccc4)ccc3OC)C(O)C(C)O2)Oc2ccc(cc2Cl)C1O (stereo not shown) [Compound 51, 3-benzyloxy-6-methoxy benzyl] | – | – | 1 (≈ 0.55 µM) | ≤ 0.06 | ≤ 0.06 | 87 (≈ 47.8 µM) | MIC (Pediococcus pentosaceus): 91 µg/mL (≈ 50 µM); MIC [5]: 76 µg/mL (≈ 41.8 µM)
CNC(CC(C)C)C(=O)NC1C(=O)NC(CC(N)=O)C(=O)NC2C(=O)NC3C(=O)NC(C(=O)NC(C(=O)O)c4cc(O)cc(O)c4-c4cc3ccc4O)C(OC3CC(C)(N)C(O)C(C)O3)c3ccc(c(Cl)c3)Oc3cc2cc(c3OC2OC(CO)C(O)C(O)C2OC2CC(C)(NCc3cccc4c3oc3ccccc34)C(O)C(C)O2)Oc2ccc(cc2Cl)C1O (stereo not shown) [Compound 39, 4-[1-oxa]fluorenylmethyl] | – | – | ≤ 0.06 | ≤ 0.06 | ≤ 0.06 | 26 (≈ 14.7 µM) | MIC (Leuconostoc lactis): 32 µg/mL (≈ 18.1 µM); MIC (Pediococcus pentosaceus): 32 µg/mL (≈ 18.1 µM); MIC (Lactobacillus confusus): 32 µg/mL (≈ 18.1 µM); MIC [5]: 32 µg/mL (≈ 18.1 µM)
C=CCCCCCCCCCNC1(C)CC(OC2C(Oc3c4cc5cc3Oc3ccc(cc3Cl)C(OC3CC(C)(N)C(O)C(C)O3)C3NC(=O)C(NC(=O)C5NC(=O)C(CC(N)=O)NC(=O)C(NC(=O)C(CC(C)C)NC)C(O)c5ccc(c(Cl)c5)O4)c4ccc(O)c(c4)-c4c(O)cc(O)cc4C(C(=O)O)NC3=O)OC(CO)C(O)C2O)OC(C)C1O (stereo not shown) [Compound 204, 10-undecenyl] | – | – | – | ≤ 0.06 | ≤ 0.06 | – | MIC [6]: ≤ 0.06 µg/mL
CNC(CC(C)C)C(=O)NC1C(=O)NC(CC(N)=O)C(=O)NC2C(=O)NC3C(=O)NC(C(=O)NC(C(=O)O)c4cc(O)cc(O)c4-c4cc3ccc4O)C(OC3CC(C)(N)C(O)C(C)O3)c3ccc(c(Cl)c3)Oc3cc2cc(c3OC2OC(CO)C(O)C(O)C2OC2CC(C)(NCCCCCCCCOc3ccc(Oc4ccccc4)cc3)C(O)C(C)O2)Oc2ccc(cc2Cl)C1O (stereo not shown) [Compound 202] | – | – | 8 (≈ 4.24 µM) | 4 (≈ 2.12 µM) | 1 (≈ 0.529 µM) | – | MIC [6]: 8 µg/mL (≈ 4.24 µM)
CNC(CC(C)C)C(=O)NC1C(=O)NC(CC(N)=O)C(=O)NC2C(=O)NC3C(=O)NC(C(=O)NC(C(=O)O)c4cc(O)cc(O)c4-c4cc3ccc4O)C(OC3CC(C)(N)C(O)C(C)O3)c3ccc(c(Cl)c3)Oc3cc2cc(c3OC2OC(CO)C(O)C(O)C2OC2CC(C)(NCc3ccc4ccccc4c3)C(O)C(C)O2)Oc2ccc(cc2Cl)C1O (stereo not shown) [Compound 1, 2-naphthylmethyl] | – | – | 4 (≈ 2.31 µM) | ≤ 0.06 | – | 18 (≈ 10.4 µM) | MIC (Leuconostoc lactis): 23 µg/mL (≈ 13.3 µM); MIC (Pediococcus pentosaceus): 23 µg/mL (≈ 13.3 µM)
2-[4-chlorophenyl]-6-benzoxazolemethyl [Compound 116] | 1 | 0.5 | 4 | 0.25 | ≤ 0.06 | – | –
CNC(CC(C)C)C(=O)NC1C(=O)NC(CC(N)=O)C(=O)NC2C(=O)NC3C(=O)NC(C(=O)NC(C(=O)O)c4cc(O)cc(O)c4-c4cc3ccc4O)C(OC3CC(C)(N)C(O)C(C)O3)c3ccc(c(Cl)c3)Oc3cc2cc(c3OC2OC(CO)C(O)C(O)C2OC2CC(C)(NCc3ccc(-c4ccccc4C)cc3)C(O)C(C)O2)Oc2ccc(cc2Cl)C1O (stereo not shown) [Compound 209] | – | – | 1 (≈ 0.564 µM) | – | ≤ 0.06 | – | MIC [7]: 0.125 µg/mL (≈ 0.0705 µM)
4-[2-[2-thiopropyl]ethoxy]benzyl [Compound 134] | 2 | 2 | 4 | 1 | 0.25 | – | –
CNC(CC(C)C)C(=O)NC1C(=O)NC(CC(N)=O)C(=O)NC2C(=O)NC3C(=O)NC(C(=O)NC(C(=O)O)c4cc(O)cc(O)c4-c4cc3ccc4O)C(OC3CC(C)(N)C(O)C(C)O3)c3ccc(c(Cl)c3)Oc3cc2cc(c3OC2OC(CO)C(O)C(O)C2OC2CC(C)(NCc3ccc(OCc4ccccc4)c(OC)c3)C(O)C(C)O2)Oc2ccc(cc2Cl)C1O (stereo not shown) [Compound 52, 4-benzyloxy-3-methoxybenzyl] | – | – | 1 (≈ 0.55 µM) | – | 0.5 (≈ 0.275 µM) | 55 (≈ 30.2 µM) | MIC [5]: 76 µg/mL (≈ 41.8 µM)
CNC(CC(C)C)C(=O)NC1C(=O)NC(CC(N)=O)C(=O)NC2C(=O)NC3C(=O)NC(C(=O)NC(C(=O)O)c4cc(O)cc(O)c4-c4cc3ccc4O)C(OC3CC(C)(N)C(O)C(C)O3)c3ccc(c(Cl)c3)Oc3cc2cc(c3OC2OC(CO)C(O)C(O)C2OC2CC(C)(NCc3ccc(C(O)c4ccccc4)cc3)C(O)C(C)O2)Oc2ccc(cc2Cl)C1O (stereo not drawn) [Compound 109, 4-[alpha-hydroxybenzyl]benzyl] | 0.25 (≈ 0.14 µM) | 0.5 (≈ 0.28 µM) | ≤ 0.06 | ≤ 0.06 | ≤ 0.06 | – | MIC [8]: 1 µg/mL (≈ 0.559 µM); MIC [9]: ≤ 0.06 µg/mL; MIC [10]: 1 µg/mL (≈ 0.559 µM); MIC [11]: ≤ 0.06 µg/mL; MIC [12]: ≤ 0.06 µg/mL; MIC [13]: ≤ 0.06 µg/mL; MIC [14]: 4 µg/mL (≈ 2.24 µM); MIC [15]: 32 µg/mL (≈ 17.9 µM); MIC [16]: ≤ 0.06 µg/mL; MIC (Entercoccus faecium 180): 0.25 µg/mL (≈ 0.14 µM); MIC [7]: 0.25 µg/mL (≈ 0.14 µM); MIC [6]: 0.25 µg/mL (≈ 0.14 µM); MIC [17]: ≤ 0.06 µg/mL; MIC [18]: 1 µg/mL (≈ 0.559 µM)
CNC(CC(C)C)C(=O)NC1C(=O)NC(CC(N)=O)C(=O)NC2C(=O)NC3C(=O)NC(C(=O)NC(C(=O)O)c4cc(O)cc(O)c4-c4cc3ccc4O)C(OC3CC(C)(N)C(O)C(C)O3)c3ccc(c(Cl)c3)Oc3cc2cc(c3OC2OC(CO)C(O)C(O)C2OC2CC(C)(NCc3ccc(NC(=O)c4cccc(F)c4)cc3)C(O)C(C)O2)Oc2ccc(cc2Cl)C1O (stereo not shown) [Compound 194, 4-[(3-fluorobenzoyl)amino]benzyl] | – | – | 2 (≈ 1.1 µM) | – | ≤ 0.06 | – | MIC [15]: 32 µg/mL (≈ 17.6 µM)
CNC(CC(C)C)C(=O)NC1C(=O)NC(CC(N)=O)C(=O)NC2C(=O)NC3C(=O)NC(C(=O)NC(C(=O)O)c4cc(O)cc(O)c4-c4cc3ccc4O)C(OC3CC(C)(N)C(O)C(C)O3)c3ccc(c(Cl)c3)Oc3cc2cc(c3OC2OC(CO)C(O)C(O)C2OC2CC(C)(NCc3ccc4cc(C)ccc4c3)C(O)C(C)O2)Oc2ccc(cc2Cl)C1O (stereo not shown) [Compound 189] | – | – | 1 (≈ 0.573 µM) | – | ≤ 0.06 | – | MIC [15]: > 64 µg/mL
